Measurements from patent US20060223837A1 (priority 2005, published 2006).
Where a name gives a salt, the structure may show the parent alone.

Experiments:
[1] = target: T1, human VR1 (Homo sapiens, UniProt Q8NER1); assay: Human VR1 [3H]RTX binding assay; details: for h Binding % I (1 μM) / inhibition at 1 µM: inhibition of [3H]RTX binding at 1 μM; for inhibition at 1 µM: read-out: h Binding % I (1 μM); for Ki: [3H]RTX binding, HEK293 membranes
T1 construct: expressed in transfected cells; host or cells: HEK293
How it was run: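 Inhibition of [3H]resiniferatoxin binding measured on HEK293-hVR1 membranes over 60 min at 37 C, pH 7.4 HEPES buffer containing BSA. Pellet radioactivity counted; 200 nM cold RTX gave nonspecific binding. % inhibition computed and Ki derived from duplicate measurements.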

[2] = target: T1, human VR1; assay: Human VR1 functional assay (FLIPR intracellular Ca2+); assay type: cell-based; details: for % Response Relative to EC80 of Capsaicin (12 μM) / Emax at 12 µM / Emax at 6 µM: agonist response; for Emax at 12 µM: read-out: % Response Relative to EC80 of Capsaicin (12 μM); for Emax at 6 µM: read-out: % Response Relative to EC80 of Capsaicin (6 μM); for inhibition at 1 µM: read-out: h % I (1 μM); for inhibition at 5 µM: read-out: h % I (5 μM); for IC50: antagonism of capsaicin-induced Ca2+ increase, read-out: h IC50
How it was run: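 Read-out was Ca2+-dye fluorescence by FLIPR: compounds at varying concentrations were added to dye-loaded human VR1 HEK293 cells and monitored 5 min before capsaicin addition ([…], approx. EC80). Dose-response data, averaged over four wells, gave EC50 or IC50.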

[3] = inhibition of capsaicin response
[4] = inhibition of capsaicin response, 5 μM

T1 sequence (Q8NER1 whole entry): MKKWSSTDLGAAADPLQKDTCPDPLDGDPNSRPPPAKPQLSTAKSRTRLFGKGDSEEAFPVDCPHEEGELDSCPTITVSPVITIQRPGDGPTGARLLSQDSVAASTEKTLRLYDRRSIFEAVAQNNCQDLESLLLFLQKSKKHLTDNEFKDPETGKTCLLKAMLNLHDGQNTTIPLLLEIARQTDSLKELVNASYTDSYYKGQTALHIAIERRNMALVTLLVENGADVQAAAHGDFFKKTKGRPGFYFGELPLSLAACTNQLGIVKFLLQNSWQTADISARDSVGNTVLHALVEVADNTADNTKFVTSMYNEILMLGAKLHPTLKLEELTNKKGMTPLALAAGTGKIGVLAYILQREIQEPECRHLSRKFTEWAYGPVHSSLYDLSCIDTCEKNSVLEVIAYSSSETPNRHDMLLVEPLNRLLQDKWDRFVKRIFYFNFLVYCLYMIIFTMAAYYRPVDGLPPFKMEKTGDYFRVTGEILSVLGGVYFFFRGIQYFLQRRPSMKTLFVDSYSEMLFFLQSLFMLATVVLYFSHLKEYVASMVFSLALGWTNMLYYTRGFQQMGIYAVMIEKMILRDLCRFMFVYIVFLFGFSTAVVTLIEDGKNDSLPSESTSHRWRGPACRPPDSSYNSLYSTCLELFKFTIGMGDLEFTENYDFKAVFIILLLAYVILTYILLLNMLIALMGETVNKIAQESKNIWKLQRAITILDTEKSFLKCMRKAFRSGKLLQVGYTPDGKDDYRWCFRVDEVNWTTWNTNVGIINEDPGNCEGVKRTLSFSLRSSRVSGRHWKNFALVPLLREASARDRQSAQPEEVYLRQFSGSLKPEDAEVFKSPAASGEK

| inhibition at 1 µM [1] | Emax at 12 µM [2] | Ki [1] | IC50 [2] | Structure (SMILES) | other results |
| --- | --- | --- | --- | --- | --- |
| – | – | 761 nM | 164 nM | Cc1cn(-c2ncc(NC(=O)CCc3ccc(C(F)(F)F)cc3)cc2C)cn1 [Cpd 226] | inhibition at 1 µM [2, 3]: 83% |
| – | – | 212 nM | 30.1 nM | CC(C)(C)c1ccc(CCC(=O)Nc2cnc(-n3ccnc3)c(C(F)(F)F)c2)cc1 [Cpd 202, 3-(4-tert-Butyl-phenyl)-N-(6-imidazol-1-yl-5-trifluoromethyl-pyridin-3-yl)-propionamide] | inhibition at 5 µM [2, 4]: 100% |
| – | – | 80 nM | 249 nM | Cc1cc(NC(=O)CCc2ccc(N(C)C3CCCCC3)cc2)cnc1-n1cnc(Cl)c1Cl [Cpd 232] | inhibition at 1 µM [2, 3]: 99% |
| – | – | 64.6 nM | 39.4 nM | O=C(CCc1ccc(C(F)(F)F)cc1)Nc1ccc(-c2cccc(O)c2)c(C(F)(F)F)c1 [Cpd 206] | inhibition at 5 µM [2, 4]: 100% |
| – | – | 500 nM | – | O=C(CCc1ccc(C(F)(F)F)cc1)Nc1ccc(-c2cccnc2F)c(C(F)(F)F)c1 [Cpd 258] | inhibition at 5 µM [2, 4]: 93% |
| – | – | 293 nM | 995 nM | O=C(CCc1ccc(C(F)(F)F)cc1)Nc1ccc(-c2ccnc(F)c2)c(C(F)(F)F)c1 [Cpd 254] | inhibition at 5 µM [2, 4]: 98% |
| – | – | 199 nM | 718 nM | O=C(CCc1ccc(C(F)(F)F)cc1)Nc1ccc(-c2ccc(CO)cc2)c(C(F)(F)F)c1 [Cpd 250] | inhibition at 5 µM [2, 4]: 100% |

Continued, compound first:

| Structure (SMILES) | inhibition at 1 µM [1] | Emax at 12 µM [2] | Ki [1] | IC50 [2] | other results |
| --- | --- | --- | --- | --- | --- |
| CC(=O)Nc1cccc(-c2ccc(NC(=O)CCc3ccc(C(F)(F)F)cc3)cc2)c1 [Cpd 75] | – | – | – | – | h Binding % I (1 μM) [1]: 6%; % Response Relative to EC80 of Capsaicin (12 μM) [2]: 82% |
| CC(C)(C)c1ccc(/C=C/C(=O)Nc2ccc(-c3cccc(C(N)=O)c3)cc2)cc1 [Cpd 35, 4′-[3-(4-tert-butyl-phenyl)-acryloylamino]-biphenyl-3-carboxylic acid amide] | 30% | 53% | – | – | – |
| CC(C)(C)c1ccc(CCC(=O)Nc2ccc(-c3ccc(CO)cc3)c(F)c2)cc1 [Cpd 102] | – | – | 39 nM | – | Emax at 6 µM [2]: 74%; inhibition at 1 µM [2, 3]: 97% |
| CC(C)(C)c1ccc(CCC(=O)Nc2ccc(-c3ccccn3)nc2)cc1 [Cpd 176] | – | – | 66 nM | – | inhibition at 1 µM [2, 3]: 99%; inhibition at 5 µM [2, 4]: 22% |
| CC(C)(C)OC(=O)Nc1cccc(-c2ccc(NC(=O)CCc3ccc(C(C)(C)C)cc3)cc2)c1 [Cpd 41] | 78.8% | 43% | 109 nM | – | inhibition at 10 µM ([2]; inhibition of capsaicin response, 10 μM, read-out: h % I (10 μM)): 30% |
| CC(C)(C)c1ccc(CCC(=O)Nc2cccc(-c3ncccn3)c2)cc1 [Cpd 116] | 1.1% | – | – | 377 nM | – |
| CC(C)(C)c1ccc(CCC(=O)Nc2ccc(-c3ccc(CO)cc3)nc2)cc1 [Cpd 135] | 90% | 79% | 31.2 nM | – | – |
| O=C(CCc1ccc(C(F)(F)F)cc1)Nc1ccc(-c2cccc(CO)c2)nc1 [Cpd 149] | – | – | – | – | h Binding % I (1 μM) [1]: 9%; % Response Relative to EC80 of Capsaicin (12 μM) [2]: 101% |
| CC(C)(C)c1ccc(CCC(=O)Nc2ccc(-c3ccncc3)c(CO)c2)cc1 [Cpd 171] | – | – | 292 nM | – | Emax at 6 µM [2]: 119%; inhibition at 1 µM [2, 3]: 60% |
| Cc1cc(NC(=O)CCc2ccc(C(C)(C)C)cc2)ccc1-c1cccnc1 [Cpd 179] | – | – | 67 nM | 266 nM | inhibition at 1 µM [2, 3]: 81%; inhibition at 5 µM [2, 4]: 100% |
| O=C(CCc1ccc(C(F)(F)F)cc1)Nc1ccc(-c2cccc(O)c2)nc1 [Cpd 147] | 62% | 92% | 319 nM | – | – |
| Cn1cncc1-c1ccc(NC(=O)CCc2ccc(C(C)(C)C)cc2)cc1 [Cpd 191] | 19% | – | – | 0.972 nM | – |
| CC1=NN(c2ccc(NC(=O)CCc3ccc(C(C)(C)C)cc3)cc2)C(=O)C1 [Cpd 201] | – | – | – | – | h Binding % I (1 μM) [1]: 1%; h % I (5 μM) [2, 4]: 57% |
| CC(C)(C)c1ccc(CCC(=O)Nc2cccc(-c3ccccn3)c2)cc1 [Cpd 109, 3-(4-tert-butyl-phenyl)-N-(3-pyridin-2-yl-phenyl)-propionamide hydrochloride] | 1% | 47% | – | – | – |
| CC(C)(C)c1ccc(CCC(=O)Nc2ccc(-c3cccc(N)c3)cc2)cc1 [Cpd 17] | 90% | 67% | 48 nM | – | – |
| O=C(CCc1ccc(C(F)(F)F)cc1)Nc1ccc(-c2cccc(O)c2)cc1 [Cpd 77] | 72% | 88% | 134 nM | – | – |
| CC(C)(C)c1ccc(CCC(=O)Nc2ccc(-c3cccc(O)c3)c(F)c2)cc1 [Cpd 61] | 96% | 68% | 53.3 nM | – | – |
